# Reference: PMC9221371, “Flavonoid Derivatives as Potential Cholinesterase Inhibitors in Scopolamine-Induced Amnesic Mice: An In Vitro, In Vivo and Integrated Computational Approach” (Brain Sciences, 2022)
# Like-named read-outs stand apart in the source and are kept apart here.
# Assays:
# [1] = tested on: scopolamine-induced amnesic mice; experiment: Y-Maze Paradigm, spontaneous alternation in scopolamine-induced amnesic model; type: in vivo, Balb/C mice; settings: for Spontaneous Alternation Performance: scopolamine 1 mg/kg i.p., n = 8
# Source text: (§1) For assessment of acute toxicity of the flavones (F1–F5), animals (21 in number) were divided into groups of 3 animals each. The reported protocols by Lorke were followed with slight modification to perform tests in two phases. In the first phase, one (control) group of animals were given Tween-80 (2%), and oral doses of F1–F5 were given to the remaining groups, respectively, at various doses (mg/kg body weight). […] The animals were housed in plastic cages. After two weeks, the animals were sacrificed by euthanasia with isoflurane in a humane manner for assessment of the effects on total weight and weight of the vital organs. The biochemical parameters of blood and histological studies of vital organs (kidney and liver tissue) were also assessed. […] The preliminary pharmacological activity was assessed at various dose concentrations of F1–F5 (2.5–20 mg/kg b.w.) to determine the effective dose for assessment of cognitive function using animal models.
# (§2) The animals in the control (normal) and scopolamine amnesic groups were administered vehicle (Tween-80, 2%) only. Treated animals received F1–F5 suspended in Tween-80 (2%) p.o. at their respective doses for a period of 4 weeks. […] For assessing behavioral effects using the Y-Maze Paradigm and novel object discrimination (NOD) task, scopolamine (1 mg/kg, i.p.) was given to the different groups, 30 min after the respective treatments, to induce memory impairment (amnesia) in mice. All of the tests were performed between 8:00 a.m. and 6:00 p.m. to avoid sham results in the performance of the animals.
# (§3) Behavioral tasks on the Y-Maze Paradigm and “NOD” tasks were conducted in the 5th week of study to determine learning and memory functions. The apparatus arena was cleaned with 70% ethanol during the inter-trial interval to prevent a confounding error due to the influence of odor [20, 21].
# The Y-Maze task is a non-invasive and reliable behavioral test that was used for memory assessment of spontaneous alternation for F1–F5 based on previously reported protocols. A single session of Y-Maze was used to record the spontaneous alternation behavior of the animals to determine exploratory behavior and instant memory functioning. The apparatus was made of three arms in a “Y” shape (35 cm × 8 cm × 15 cm) with an equilateral triangular central area. In brief, each of the mice, previously naive to the maze, was placed at the terminal end of one arm. The animals were allowed to move and explore freely for 8 min through the maze. The number of arm entries was noted. One arm entry was considered when the hind paws of the animal were completely placed inside the arm, and the series of arm entries were documented. The spontaneous alternation in percent was calculated.
# [2] = tested on: Balb/C mice; experiment: Acute toxicity study; type: in vivo; settings: n = 3; for ALP / AST / Creatinine / Glucose / Total Cholesterol / Triglyceride: blood; for Kidney Weight / Liver Weight / Total Weight: mice
# Source text: Two weeks before the experiment, the animals were acclimatized to laboratory conditions.
# as §1
# [3] = tested on: scopolamine-induced amnesic mice; experiment: Novel object discrimination (NOD) task in scopolamine-induced amnesic model; type: in vivo, Balb/C mice; settings: scopolamine 1 mg/kg i.p., n = 8
# Protocol: as §2, §3
# Animals were challenged for the novel object discrimination task for F1–F5 as per previously reported protocols. After habituation and acclimatization, animals in each group had two consecutive object exploration trials (5 min each) for this test, with a break of 4 h in between two trials. In the familiarization phase (sample), the animals were challenged to explore two objects similar to each other. In the second phase (test), any of the two objects was changed by a new object. Exploration time in sec for the objects, including chewing, licking, sniffing or pointing the vibrissae of nose towards the object, was recorded. The discrimination ratio (%DI) was then determined using:(T novel object − T familiar object)/(T novel object + T familiar object) × 100(1)
# [4] = tested on: brains of scopolamine-induced amnesic mice; experiment: Antioxidant enzyme activities and oxidative stress markers in brain homogenate; type: in vivo, Balb/C mice
# Protocol: as §2
# (§4) The brain was extracted, and a homogenate (10% w/v) in 0.1 M of phosphate buffer (pH 7.4) was prepared by centrifugation for the assessment of brain oxidative status and estimating brain acetylcholinesterase activity. Catalase (CAT), superoxide dismutase (SOD), glutathione (GSH) and level of lipid peroxidation (malondialdehyde, MDA) were quantified as oxidative stress markers.
# [5] = target: T1, brain acetylcholinesterase (Mus musculus, UniProt P21836); type: in vivo; set-up: unit not given here; settings: brain homogenate, n = 8
# T1 construct: The brain was extracted, and a homogenate (10% w/v) in 0.1 M of phosphate buffer (pH 7.4) was prepared; from tissue; host or cells: mouse brain homogenate
# T1 sequence (P21836 32-614): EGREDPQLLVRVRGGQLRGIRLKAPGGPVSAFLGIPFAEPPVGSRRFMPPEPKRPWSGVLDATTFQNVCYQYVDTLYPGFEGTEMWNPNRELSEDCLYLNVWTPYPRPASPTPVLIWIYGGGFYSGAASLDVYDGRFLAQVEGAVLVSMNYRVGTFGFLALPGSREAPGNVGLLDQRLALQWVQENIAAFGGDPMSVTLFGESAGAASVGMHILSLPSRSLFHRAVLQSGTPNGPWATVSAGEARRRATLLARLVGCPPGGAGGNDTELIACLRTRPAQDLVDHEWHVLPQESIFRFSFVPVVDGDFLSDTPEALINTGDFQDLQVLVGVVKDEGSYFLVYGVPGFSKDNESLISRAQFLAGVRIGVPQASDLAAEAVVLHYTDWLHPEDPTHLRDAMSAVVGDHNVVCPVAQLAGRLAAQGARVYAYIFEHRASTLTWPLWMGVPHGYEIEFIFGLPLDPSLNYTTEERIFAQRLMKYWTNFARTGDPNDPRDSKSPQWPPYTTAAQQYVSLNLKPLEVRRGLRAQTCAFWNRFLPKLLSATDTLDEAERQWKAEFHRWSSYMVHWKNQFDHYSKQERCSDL
# Protocol: as §2, §4
# [6] = target: T2, AChE (electric eel type-VI-S) (Electrophorus electricus, UniProt O42275); experiment: biochemical; settings: 25 °C, triplicate
# T2 construct: purchased Sigma-Aldrich (Taufkirchen, Germany)
# T2 sequence (O42275 24-633): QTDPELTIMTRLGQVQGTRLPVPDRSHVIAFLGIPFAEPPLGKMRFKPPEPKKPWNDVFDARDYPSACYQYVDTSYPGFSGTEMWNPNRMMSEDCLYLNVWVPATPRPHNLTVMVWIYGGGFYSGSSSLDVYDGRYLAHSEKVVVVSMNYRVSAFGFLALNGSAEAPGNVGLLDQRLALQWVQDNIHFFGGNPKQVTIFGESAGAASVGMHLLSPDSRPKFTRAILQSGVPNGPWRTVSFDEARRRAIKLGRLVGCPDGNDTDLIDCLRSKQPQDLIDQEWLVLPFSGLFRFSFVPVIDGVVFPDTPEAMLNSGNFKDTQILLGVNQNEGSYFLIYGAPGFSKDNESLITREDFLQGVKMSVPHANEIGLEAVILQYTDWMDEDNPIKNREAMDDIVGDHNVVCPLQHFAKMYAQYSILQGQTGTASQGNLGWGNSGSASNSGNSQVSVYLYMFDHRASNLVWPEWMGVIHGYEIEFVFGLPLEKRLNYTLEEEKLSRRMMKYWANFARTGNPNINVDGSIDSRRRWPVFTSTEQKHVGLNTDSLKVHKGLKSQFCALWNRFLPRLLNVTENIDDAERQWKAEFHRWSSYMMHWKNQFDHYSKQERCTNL
# Protocol: (§5) Synthetic flavonoids F1–F5 previously synthesized by our group were used in the study.
# (§6) For the determination of acetylcholinesterase inhibitory potentials, AChE and BuChE were used. […] To the tube were added DTNB (100 µL) and buffer (2.4 mL). The tube was incubated at 25 °C for 5 min as pre-incubation. The reaction was started by adding ATChI (40 µL), and the mixture was incubated at 25 °C for 20 min. The absorbance at 412 nm was measured spectrophotometrically in triplicate. […] The data were recorded in triplicate, and IC50 was calculated.
# [7] = target: T3, BuChE (equine serum lyophilized) (Equus caballus, UniProt P81908); experiment: biochemical; settings: triplicate; read-out: BChE IC50 (converted)
# T3 construct: purchased Sigma-Aldrich (Taufkirchen, Germany); host or cells: equine serum
# T3 sequence (P81908 whole entry): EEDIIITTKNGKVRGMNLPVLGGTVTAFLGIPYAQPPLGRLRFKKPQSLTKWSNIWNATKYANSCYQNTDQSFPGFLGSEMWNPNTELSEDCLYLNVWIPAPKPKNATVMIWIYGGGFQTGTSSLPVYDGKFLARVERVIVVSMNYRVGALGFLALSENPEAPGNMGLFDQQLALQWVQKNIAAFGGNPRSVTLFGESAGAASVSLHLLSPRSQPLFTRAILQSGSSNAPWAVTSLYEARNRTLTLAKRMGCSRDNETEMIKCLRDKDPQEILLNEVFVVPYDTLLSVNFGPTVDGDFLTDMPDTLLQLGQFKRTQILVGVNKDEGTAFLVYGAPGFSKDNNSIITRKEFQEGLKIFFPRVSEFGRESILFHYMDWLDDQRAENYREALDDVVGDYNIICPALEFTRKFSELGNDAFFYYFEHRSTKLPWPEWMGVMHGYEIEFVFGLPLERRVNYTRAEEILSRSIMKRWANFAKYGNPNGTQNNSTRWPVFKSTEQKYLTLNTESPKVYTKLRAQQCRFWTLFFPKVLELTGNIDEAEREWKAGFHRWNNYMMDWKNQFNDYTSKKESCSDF
# Protocol: as §5, §6
# [8] = 7.5 mg/kg b.w., n = 8, 7.5 mg/kg
smiles,measurement,setting,value
O=c1cc(-c2ccc(Cl)cc2)oc2ccccc12 [Compound F1],Spontaneous Alternation Performance,[1]; 7.5 mg/kg b.w. p.o. 4 weeks,49.90 ± 1.33%
same,Spontaneous Alternation Performance,[1]; 15 mg/kg b.w. p.o. 4 weeks,51.78 ± 1.45%
same,"Spontaneous alternation performance (preliminary, selection of doses)","[1]; Table S1, dose 2.5 mg/kg b.w.",37.02±2.11
same,"Spontaneous alternation performance (preliminary, selection of doses)","[1]; Table S1, dose 5 mg/kg b.w.",38.91±1.67
same,"Spontaneous alternation performance (preliminary, selection of doses)","[1]; Table S1, dose 7.5 mg/kg b.w.",49.12±1.45
same,"Spontaneous alternation performance (preliminary, selection of doses)","[1]; Table S1, dose 10 mg/kg b.w.",48.66±1.98
same,"Spontaneous alternation performance (preliminary, selection of doses)","[1]; Table S1, dose 12.5 mg/kg b.w.",48.98±2.01
same,"Spontaneous alternation performance (preliminary, selection of doses)","[1]; Table S1, dose 15 mg/kg b.w.",51.72±1.88
same,"Spontaneous alternation performance (preliminary, selection of doses)","[1]; Table S1, dose 20 mg/kg b.w.",52.03±2.03
same,ALP,[2]; 600 mg/kg b.w. oral,132.54 ± 2.78 U/L
same,AST,[2]; 600 mg/kg b.w. oral,107.89 ± 2.01 U/L
same,Creatinine,[2]; 600 mg/kg b.w. oral,0.36 ± 0.05 mg/dL
same,Glucose,[2]; 600 mg/kg b.w. oral,85.51 ± 2.33 mg/dL
same,Total Cholesterol,[2]; 600 mg/kg b.w. oral,103.19 ± 2.06 mg/dL
same,Triglyceride,[2]; 600 mg/kg b.w. oral,95.20 ± 2.76 mg/dL
same,Kidney Weight,[2]; 600 mg/kg b.w. oral,0.29 ± 0.19 g
same,Liver Weight,[2]; 600 mg/kg b.w. oral,1.24 ± 0.21 g
same,Total Weight,[2]; 600 mg/kg b.w. oral,21.82 ± 1.39 g
same,ALP,[2]; 1000 mg/kg b.w. oral,136.33 ± 2.39 U/L
same,AST,[2]; 1000 mg/kg b.w. oral,108.34 ± 2.66 U/L
same,Creatinine,[2]; 1000 mg/kg b.w. oral,0.38 ± 0.06 mg/dL
same,Glucose,[2]; 1000 mg/kg b.w. oral,86.98 ± 2.09 mg/dL
same,Total Cholesterol,[2]; 1000 mg/kg b.w. oral,102.76 ± 1.87 mg/dL
same,Triglyceride,[2]; 1000 mg/kg b.w. oral,94.78 ± 1.98 mg/dL
same,Kidney Weight,[2]; 1000 mg/kg b.w. oral,0.29 ± 0.18 g
same,Liver Weight,[2]; 1000 mg/kg b.w. oral,1.23 ± 0.26 g
same,Total Weight,[2]; 1000 mg/kg b.w. oral,22.93 ± 1.91 g
same,ALP,[2]; 2000 mg/kg b.w. oral,135.29 ± 4.17 U/L
same,AST,[2]; 2000 mg/kg b.w. oral,109.73 ± 1.98 U/L
same,Creatinine,[2]; 2000 mg/kg b.w. oral,0.34 ± 0.04 mg/dL
same,Glucose,[2]; 2000 mg/kg b.w. oral,86.45 ± 2.27 mg/dL
same,Total Cholesterol,[2]; 2000 mg/kg b.w. oral,102.05 ± 2.01 mg/dL
same,Triglyceride,[2]; 2000 mg/kg b.w. oral,96.22 ± 1.70 mg/dL
same,Kidney Weight,[2]; 2000 mg/kg b.w. oral,0.30 ± 0.20 g
same,Liver Weight,[2]; 2000 mg/kg b.w. oral,1.23 ± 0.24 g
same,Total Weight,[2]; 2000 mg/kg b.w. oral,21.79 ± 1.72 g
same,ALP,[2]; 3000 mg/kg b.w. oral,136.09 ± 3.12 U/L
same,AST,[2]; 3000 mg/kg b.w. oral,109.90 ± 2.09 U/L
same,Creatinine,[2]; 3000 mg/kg b.w. oral,0.29 ± 0.03 mg/dL
same,Glucose,[2]; 3000 mg/kg b.w. oral,85.72 ± 1.97 mg/dL
same,Total Cholesterol,[2]; 3000 mg/kg b.w. oral,101.28 ± 1.98 mg/dL
same,Triglyceride,[2]; 3000 mg/kg b.w. oral,97.41 ± 1.83 mg/dL
same,Kidney Weight,[2]; 3000 mg/kg b.w. oral,0.31 ± 0.27 g
same,Liver Weight,[2]; 3000 mg/kg b.w. oral,1.25 ± 0.29 g
same,Total Weight,[2]; 3000 mg/kg b.w. oral,22.71 ± 1.79 g
same,discrimination index (%DI),[3]; 7.5 mg/kg b.w. p.o. 4 weeks,48.67 ± 1.57%
same,discrimination index (%DI),[3]; 15 mg/kg b.w. p.o. 4 weeks,51.11 ± 1.48%
same,GSH,"[4]; 7.5 mg/kg b.w., n = 8",34.62 ± 1.50 μg/mg of Protein
same,MDA,"[4]; 7.5 mg/kg b.w., n = 8",16.39 ± 1.28 nmol/mg Protein
same,CAT,[4]; [8],21.93 ± 1.37 U/mg of Protein
same,SOD,[4]; [8],8.97 ± 1.12 U/mg of Protein
same,GSH,"[4]; 15 mg/kg b.w., n = 8",35.70 ± 1.47 μg/mg of Protein
same,MDA,"[4]; 15 mg/kg b.w., n = 8",16.12 ± 1.47 nmol/mg Protein
same,CAT,"[4]; 15 mg/kg b.w., n = 8, 15 mg/kg",22.31 ± 1.22 U/mg of Protein
same,SOD,"[4]; 15 mg/kg b.w., n = 8, 15 mg/kg",9.12 ± 1.28 U/mg of Protein
same,level of AChE,[5]; 7.5 mg/kg b.w.,21.31 ± 0.53
same,level of AChE,[5]; 15 mg/kg b.w.,21.01 ± 0.61
same,IC50,[6],644 µM
same,IC50,[7],603 µM
O=c1cc(-c2ccc(Cl)cc2Cl)oc2ccccc12 [Compound F2],Spontaneous Alternation Performance,[1]; 7.5 mg/kg b.w. p.o. 4 weeks,47.13 ± 1.65%
same,Spontaneous Alternation Performance,[1]; 15 mg/kg b.w. p.o. 4 weeks,49.88 ± 1.28%
same,CAT,"[4]; 7.5 mg/kg b.w., n = 8",22.83 ± 1.19 U/mg of Protein
same,GSH,"[4]; 7.5 mg/kg b.w., n = 8",34.93 ± 1.22 μg/mg of Protein
same,MDA,"[4]; 7.5 mg/kg b.w., n = 8",15.16 ± 1.21 nmol/mg Protein
same,SOD,"[4]; 7.5 mg/kg b.w., n = 8",9.25 ± 1.36 U/mg of Protein
same,CAT,"[4]; 15 mg/kg b.w., n = 8",23.71 ± 1.45 U/mg of Protein
same,GSH,"[4]; 15 mg/kg b.w., n = 8",35.91 ± 1.39 μg/mg of Protein
same,MDA,"[4]; 15 mg/kg b.w., n = 8",14.90 ± 1.33 nmol/mg Protein
same,SOD,"[4]; 15 mg/kg b.w., n = 8",9.33 ± 1.45 U/mg of Protein
same,IC50,[6],451 µM
same,IC50,[7],361 µM
